Series [1] is described as follows: Quantum yield measurements versus Acridine Yellow in EtOH. The note with it: for φ (quantum yield): MK library, Table 5, excitation 460 nm; for φ (%): MKAC compound library, quantum yield. It is filed as physicochemical. The procedure, abridged: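 Emission areas integrated over 510–700 nm were compared with Acridine Yellow in ethanol (Φ=0.47), all excited at 460 nm. The comparative equation was normalized to excitation-wavelength absorbance and solvent refractive index.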

Series [2] is described as follows: Absorbance and fluorescence emission spectra (SpectraMax M2). It is filed as physicochemical. The note with it: for λmax Absorp. / λmax Emission: MK library, Table 5; for λmax Abs. (nm) / λmax Em. (nm): MKAC compound library; for λmax Abs. (nm): absorbance maximum; for λmax Em. (nm): fluorescence emission maximum. The essentials: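 Spectroscopic data, including quantum yields, were recorded with a SpectraMax M2 instrument and analysed in GraphPrism.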

With `CC(C)Cc1cn(-c2ccc3n2[B-](F)(F)[N+]2=C(N4CCCC4)C=CC2=C3c2ccc(N)cc2)nn1` [MK215-43], the “φ (quantum yield)” value in series [1] stood at 0.33%. In addition, in series [2], the “λmax Absorp.” value stood at 471 nm and the “λmax Emission” value came out at 571 nm.
Turning to `CCCc1cn(-c2ccc3n2[B-](F)(F)[N+]2=C(N4CCCC4)C=CC2=C3c2ccc(N)cc2)nn1` [MK215-48], the “φ (quantum yield)” value in series [1] amounted to 0.29%. Moreover, in series [2], the “λmax Absorp.” value was found to be 470 nm and the “λmax Emission” value amounted to 575 nm.
In the case of `CCCCCC(O)c1cn(-c2ccc3n2[B-](F)(F)[N+]2=C(N4CCCC4)C=CC2=C3c2ccc(N)cc2)nn1` (stereo not drawn) [MK215-69], the “φ (quantum yield)” value in series [1] was 0.33%. Moreover, in series [2], the “λmax Absorp.” value is 470 nm and the “λmax Emission” value is 580 nm.
On to `Nc1ccc(C2=C3C=CC(N4CCCC4)=[N+]3[B-](F)(F)n3c2ccc3-n2cc(CO)nn2)cc1` [MK215-70], for which the “φ (quantum yield)” value in series [1] is 0.22%. Moreover, in series [2], the “λmax Absorp.” value is on record as 471 nm and the “λmax Emission” value is recorded as 595 nm.
`CCCC(C)c1cn(-c2ccc3n2[B-](F)(F)[N+]2=C(NCc4cc(F)cc(F)c4)C=CC2=C3c2ccc(N)cc2)nn1` (stereo not drawn) [MK412-3]: in series [1], the “φ (quantum yield)” value turned out to be 0.63%. Also, in series [2], the “λmax Absorp.” value turned out to be 476 nm and the “λmax Emission” value is 562 nm.
In the same order, the values of `Nc1ccc(C2=C3C=CC(NCc4cc(F)cc(F)c4)=[N+]3[B-](F)(F)n3c2ccc3-n2cc(C3CC3)nn2)cc1` [MK412-4] are 0.67%, 475 nm and 562 nm.
Take `Nc1ccc(C2=C3C=CC(NCc4cc(F)cc(F)c4)=[N+]3[B-](F)(F)n3c2ccc3-n2cc(C3CCCC3)nn2)cc1` [MK412-5]: in series [1], the “φ (quantum yield)” value is 0.68%. Further, in series [2], the “λmax Absorp.” value was 476 nm and the “λmax Emission” value is 567 nm.
As to `Nc1ccc(C2=C3C=CC(NCc4cc(F)cc(F)c4)=[N+]3[B-](F)(F)n3c2ccc3-n2cc(CC3CCCCC3)nn2)cc1` [MK412-8], the “φ (quantum yield)” value in series [1] is listed as 0.56%. In series [2], the “λmax Absorp.” value was 476 nm and the “λmax Emission” value turned out to be 563 nm.
On to `CN(Cc1ccccc1)Cc1cn(-c2ccc3n2[B-](F)(F)[N+]2=C(NCc4cc(F)cc(F)c4)C=CC2=C3c2ccc(N)cc2)nn1` [MK412-18], for which the “φ (quantum yield)” value in series [1] came out at 1.02%. Further, in series [2], the “λmax Absorp.” value came out at 473 nm and the “λmax Emission” value is on record as 563 nm.
In the same order, the values of `Nc1ccc(C2=C3C=CC(NCc4cc(F)cc(F)c4)=[N+]3[B-](F)(F)n3c2ccc3-n2cc(CCc3ccccc3)nn2)cc1` [MK412-19] are 0.92%, 475 nm and 564 nm.
Regarding `CC(C)Cc1cn(-c2ccc3n2[B-](F)(F)[N+]2=C(NCc4cc(F)cc(F)c4)C=CC2=C3c2ccc(N)cc2)nn1` [MK412-43], in series [1], the “φ (quantum yield)” value is on record as 0.86%. Besides, in series [2], the “λmax Absorp.” value was determined as 476 nm and the “λmax Emission” value is 564 nm.
For `CCCc1cn(-c2ccc3n2[B-](F)(F)[N+]2=C(NCc4cc(F)cc(F)c4)C=CC2=C3c2ccc(N)cc2)nn1` [MK412-48], in that order: 1.55%, 474 nm and 563 nm.
For `CCCCCC(O)c1cn(-c2ccc3n2[B-](F)(F)[N+]2=C(NCc4cc(F)cc(F)c4)C=CC2=C3c2ccc(N)cc2)nn1` (stereo not drawn) [MK412-69], in that order: 1.98%, 476 nm and 563 nm.
With `Nc1ccc(C2=C3C=CC(NCc4cc(F)cc(F)c4)=[N+]3[B-](F)(F)n3c2ccc3-n2cc(CO)nn2)cc1` [MK412-70], the “φ (quantum yield)” value in series [1] is recorded as 1.89%. In addition, in series [2], the “λmax Absorp.” value came to 470 nm and the “λmax Emission” value is listed as 562 nm.
Turning to `CCCC(C)c1cn(-c2ccc3n2[B-](F)(F)[N+]2=C(NCc4ccccc4C)C=CC2=C3c2ccc(NC(C)=O)cc2)nn1` (stereo not drawn) [MKA101-3], the “φ (%)” value in series [1] was 21.57%. Moreover, in series [2], the “λmax Abs. (nm)” value was found to be 464 nm and the “λmax Em. (nm)” value is recorded as 562 nm.
In the same order, the values of `CCCC(C)c1cn(-c2ccc3n2[B-](F)(F)[N+]2=C(N4CC(C)OC(C)C4)C=CC2=C3c2ccc(NC(C)=O)cc2)nn1` (stereo not drawn) [MKAC20-3] are 2.40%, 466 nm and 583 nm.
Regarding `CC(=O)Nc1ccc(C2=C3C=CC(N4CC(C)OC(C)C4)=[N+]3[B-](F)(F)n3c2ccc3-n2cc(C3CC3)nn2)cc1` (stereo not drawn) [MKAC20-4], in series [1], the “φ (%)” value worked out at 3.64%. Further, in series [2], the “λmax Abs. (nm)” value stood at 466 nm and the “λmax Em. (nm)” value came to 585 nm.
In the same order, the values of `CC(=O)Nc1ccc(C2=C3C=CC(N4CC(C)OC(C)C4)=[N+]3[B-](F)(F)n3c2ccc3-n2cc(C3CCCC3)nn2)cc1` (stereo not drawn) [MKAC20-5] are 3.47%, 467 nm and 580 nm.
Regarding `CC(=O)Nc1ccc(C2=C3C=CC(N4CC(C)OC(C)C4)=[N+]3[B-](F)(F)n3c2ccc3-n2cc(CC3CCCCC3)nn2)cc1` (stereo not drawn) [MKAC20-8], the “φ (%)” value in series [1] turned out to be 4.98%. For the same compound, in series [2], the “λmax Abs. (nm)” value was 466 nm and the “λmax Em. (nm)” value came out at 583 nm.
On to `CC(=O)Nc1ccc(C2=C3C=CC(N4CC(C)OC(C)C4)=[N+]3[B-](F)(F)n3c2ccc3-n2cc(CN(C)Cc3ccccc3)nn2)cc1` (stereo not drawn) [MKAC20-18], for which the “φ (%)” value in series [1] came out at 2.13%. In addition, in series [2], the “λmax Abs. (nm)” value is reported as 467 nm and the “λmax Em. (nm)” value turned out to be 583 nm.
With `CC(=O)Nc1ccc(C2=C3C=CC(N4CC(C)OC(C)C4)=[N+]3[B-](F)(F)n3c2ccc3-n2cc(CCc3ccccc3)nn2)cc1` (stereo not drawn) [MKAC20-19], in series [1], the “φ (%)” value is 3.12%. In series [2], the “λmax Abs. (nm)” value came to 467 nm and the “λmax Em. (nm)” value is reported as 579 nm.
On to `CC(=O)Nc1ccc(C2=C3C=CC(N4CC(C)OC(C)C4)=[N+]3[B-](F)(F)n3c2ccc3-n2cc(CC(C)C)nn2)cc1` (stereo not drawn) [MKAC20-43], for which, in series [1], the “φ (%)” value was found to be 1.55%. In series [2], the “λmax Abs. (nm)” value is reported as 467 nm and the “λmax Em. (nm)” value is listed as 586 nm.
In the same order, the values of `CCCc1cn(-c2ccc3n2[B-](F)(F)[N+]2=C(N4CC(C)OC(C)C4)C=CC2=C3c2ccc(NC(C)=O)cc2)nn1` (stereo not drawn) [MKAC20-48] are 2.93%, 467 nm and 581 nm.
`CCCCCC(O)c1cn(-c2ccc3n2[B-](F)(F)[N+]2=C(N4CC(C)OC(C)C4)C=CC2=C3c2ccc(NC(C)=O)cc2)nn1` (stereo not drawn) [MKAC20-69]: the “φ (%)” value in series [1] turned out to be 2.23%. Besides, in series [2], the “λmax Abs. (nm)” value came out at 469 nm and the “λmax Em. (nm)” value came out at 590 nm.
Turning to `CC(=O)Nc1ccc(C2=C3C=CC(N4CC(C)OC(C)C4)=[N+]3[B-](F)(F)n3c2ccc3-n2cc(CO)nn2)cc1` (stereo not drawn) [MKAC20-70], the “φ (%)” value in series [1] worked out at 1.33%. Also, in series [2], the “λmax Abs. (nm)” value turned out to be 467 nm and the “λmax Em. (nm)” value was found to be 586 nm.
With `CCCC(C)c1cn(-c2ccc3n2[B-](F)(F)[N+]2=C(N4CCc5ccccc5C4)C=CC2=C3c2ccc(NC(C)=O)cc2)nn1` (stereo not drawn) [MKAC66-3], in series [1], the “φ (%)” value stood at 2.40%. Also, in series [2], the “λmax Abs. (nm)” value is 469 nm and the “λmax Em. (nm)” value is 583 nm.
Take `CC(=O)Nc1ccc(C2=C3C=CC(N4CCc5ccccc5C4)=[N+]3[B-](F)(F)n3c2ccc3-n2cc(C3CC3)nn2)cc1` [MKAC66-4]: the “φ (%)” value in series [1] came to 2.56%. Moreover, in series [2], the “λmax Abs. (nm)” value was 469 nm and the “λmax Em. (nm)” value was 580 nm.
In the same order, the values of `CC(=O)Nc1ccc(C2=C3C=CC(N4CCc5ccccc5C4)=[N+]3[B-](F)(F)n3c2ccc3-n2cc(C3CCCC3)nn2)cc1` [MKAC66-5] are 1.96%, 470 nm and 583 nm.
In the case of `CC(=O)Nc1ccc(C2=C3C=CC(N4CCc5ccccc5C4)=[N+]3[B-](F)(F)n3c2ccc3-n2cc(CC3CCCCC3)nn2)cc1` [MKAC66-8], the “φ (%)” value in series [1] is reported as 2.20%. Moreover, in series [2], the “λmax Abs. (nm)” value amounted to 469 nm and the “λmax Em. (nm)” value came to 578 nm.
For `CC(=O)Nc1ccc(C2=C3C=CC(N4CCc5ccccc5C4)=[N+]3[B-](F)(F)n3c2ccc3-n2cc(CN(C)Cc3ccccc3)nn2)cc1` [MKAC66-18], in that order: 1.56%, 468 nm and 585 nm.
Turning to `CC(=O)Nc1ccc(C2=C3C=CC(N4CCc5ccccc5C4)=[N+]3[B-](F)(F)n3c2ccc3-n2cc(CCc3ccccc3)nn2)cc1` [MKAC66-19], the “φ (%)” value in series [1] is 1.76%. In series [2], the “λmax Abs. (nm)” value is 470 nm and the “λmax Em. (nm)” value is 580 nm.
Regarding `CC(=O)Nc1ccc(C2=C3C=CC(N4CCc5ccccc5C4)=[N+]3[B-](F)(F)n3c2ccc3-n2cc(CC(C)C)nn2)cc1` [MKAC66-43], the “φ (%)” value in series [1] is recorded as 1.92%. Also, in series [2], the “λmax Abs. (nm)” value is reported as 469 nm and the “λmax Em. (nm)” value came out at 581 nm.
Take `CCCc1cn(-c2ccc3n2[B-](F)(F)[N+]2=C(N4CCc5ccccc5C4)C=CC2=C3c2ccc(NC(C)=O)cc2)nn1` [MKAC66-48]: the “φ (%)” value in series [1] was found to be 2.14%. In series [2], the “λmax Abs. (nm)” value was 469 nm and the “λmax Em. (nm)” value turned out to be 582 nm.
For `CCCCCC(O)c1cn(-c2ccc3n2[B-](F)(F)[N+]2=C(N4CCc5ccccc5C4)C=CC2=C3c2ccc(NC(C)=O)cc2)nn1` (stereo not drawn) [MKAC66-69], in that order: 1.88%, 469 nm and 579 nm.
As for `CC(=O)Nc1ccc(C2=C3C=CC(N4CCc5ccccc5C4)=[N+]3[B-](F)(F)n3c2ccc3-n2cc(CO)nn2)cc1` [MKAC66-70], the “φ (%)” value in series [1] was found to be 1.44%. Besides, in series [2], the “λmax Abs. (nm)” value came out at 468 nm and the “λmax Em. (nm)” value is recorded as 582 nm.
In the case of `CC(=O)Nc1ccc(C2=C3C=CC(NCc4ccccc4C)=[N+]3[B-](F)(F)n3c2ccc3-n2cc(C3CC3)nn2)cc1` [MKAC101-4], in series [1], the “φ (%)” value is reported as 23.84%. Besides, in series [2], the “λmax Abs. (nm)” value came out at 465 nm and the “λmax Em. (nm)” value was 563 nm.

For the origin of these results see patent publication US9513294B2, “Megastokes amino-triazolyl-BODIPY compounds and applications to live neuron staining and human serum albumin FA1 drug site probing” (National University of Singapore, priority 2012, dated 2016).
